Measurements from patent US20100267561A1, “HERBICIDAL PYRIDAZINONE DERIVATIVES” (priority 2007, published 2010).
Like-named read-outs stand apart in the source and are kept apart here.

How the values were obtained:
Type in all cases: in vivo
[1] = system: barnyardgrass (Echinochloa crus-galli); assay: Test A pre-/postemergence plant response; settings: Echinochloa crus-galli, 240 h, 1000 g ai/ha, read-out: Plant response rating, Barnyardgrass
How it was run: (§1)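 Scores reflect visual plant injury relative to untreated controls on a 0–100 scale, recorded approximately 10 days after simultaneous preemergence soil spraying and postemergence spraying of one- to two-leaf seedlings grown in loam–sand.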

[2] = system: corn (Zea mays); assay: Test A pre-/postemergence plant response; settings: Zea mays, 240 h, 1000 g ai/ha
How it was run: as §1

[3] = system: giant foxtail (Setaria faberi); assay: Test A pre-/postemergence plant response; settings: Setaria faberi, 240 h, 1000 g ai/ha, read-out: Plant response rating, Foxtail, Giant
How it was run: as §1

[4] = system: large crabgrass (Digitaria sanguinalis); assay: Test A pre-/postemergence plant response; settings: Digitaria sanguinalis, 240 h, 1000 g ai/ha, read-out: Plant response rating, Crabgrass, Large
How it was run: as §1

[5] = system: morningglory (Ipomoea coccinea); assay: Test A pre-/postemergence plant response; settings: 1000 g ai/ha
How it was run: as §1

[6] = system: pigweed (Amaranthus retroflexus); assay: Test A pre-/postemergence plant response; settings: Amaranthus retroflexus, 240 h, 1000 g ai/ha, read-out: Plant response rating, Pigweed
How it was run: as §1

[7] = system: velvetleaf (Abutilon theophrasti); assay: Test A pre-/postemergence plant response; settings: 1000 g ai/ha
How it was run: as §1

[8] = system: wheat (Triticum aestivum); assay: Test A pre-/postemergence plant response; settings: Triticum aestivum, 240 h, 1000 g ai/ha, read-out: Plant response rating, Wheat
How it was run: as §1

[9] = system: bermudagrass (Cynodon dactylon); assay: Test B pre-/postemergence plant response; settings: for pest or weed control at 31 g/ha: 31 g ai/ha, 100 complete control; for pest or weed control at 62 g/ha: 62 g ai/ha; for pest or weed control at 125 g/ha: 125 g ai/ha
How it was run: (§2)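 Seeds were sown and sprayed preemergence, while plants at 2 to 18 cm (1- to 4-leaf stage) got postemergence sprays. Compounds were formulated in a non-phytotoxic solvent mixture with surfactant. After 13 to 15 days in a greenhouse, injury was rated visually against untreated controls, 0 (no effect) to 100 (complete control).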

[10] = system: cocklebur (Xanthium strumarium); assay: Test B pre-/postemergence plant response; settings: Xanthium strumarium, read-out: Plant response rating, Cocklebur; for pest or weed control at 31 g/ha: 31 g ai/ha, 100 complete control; for pest or weed control at 62 g/ha: 62 g ai/ha; for pest or weed control at 62 g/ha / pest or weed control at 125 g/ha / pest or weed control at 250 g/ha: scale 0 to 100; for pest or weed control at 125 g/ha: 125 g ai/ha; for pest or weed control at 250 g/ha: 250 g ai/ha
How it was run: as §2

[11] = system: yellow nutsedge (Cyperus esculentus); assay: Test B pre-/postemergence plant response; settings: Cyperus, read-out: Plant response rating, Nutsedge, Yellow; for pest or weed control at 31 g/ha: 31 g ai/ha, 100 complete control; for pest or weed control at 62 g/ha: 62 g ai/ha; for pest or weed control at 250 g/ha: 250 g ai/ha
How it was run: as §2

[12] = system: chickweed (Stellaria media); assay: Test B postemergence plant response; settings: Postemergence
How it was run: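 Following treatment of plants 2 to 18 cm high after emergence, pots were held under glass for 13 to 15 days; efficacy was then graded visually, 100 denoting complete control and a dash no test result.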

[13] = post-emergence, Postemergence, 0 to 100 scale, 0 no effect, 100 complete control
[14] = pre-emergence, Preemergence, 0 to 100 scale (0 no effect, 100 complete control)
[15] = Postemergence, 0 to 100 scale, 0 no effect, 100 complete control
[16] = Preemergence, 0 to 100 scale (0 no effect, 100 complete control)
[17] = Cynodon dactylon, post-emergence, Postemergence, scale 0 to 100, read-out: Plant response rating, Bermudagrass
[18] = Cynodon dactylon, pre-emergence, Preemergence, scale 0 to 100, read-out: Plant response rating, Bermudagrass
[19] = post-emergence, Postemergence, scale 0 to 100, 0 no effect
[20] = pre-emergence, Preemergence, 0 to 100 scale, 0 no effect
[21] = post-emergence, Postemergence, scale 0 to 100
[22] = pre-emergence, Preemergence, scale 0 to 100

Compound: Cc1cc(-c2ccc(C(F)(F)F)cc2)nn1-c1c(O)cnn(C)c1=O [Compound 1, 5-hydroxy-2-methyl-4-[5-methyl-3-[4-(trifluoromethyl)phenyl]-1H-pyrazol-1-yl]-3(2H)-pyridazinone]
- pest or weed control at 1000 g/ha [1, 13]: 100%
- pest or weed control at 1000 g/ha [1, 14]: 100%
- Corn plant response rating (crop injury, 0 = no effect, 100 = complete kill) at 1000 g/ha [2, 13]: 100%
- Corn plant response rating (crop injury, 0 = no effect, 100 = complete kill) at 1000 g/ha [2, 14]: 100%
- pest or weed control at 1000 g/ha [3, 13]: 100%
- pest or weed control at 1000 g/ha [3, 14]: 100%
- pest or weed control at 1000 g/ha [4, 13]: 100%
- pest or weed control at 1000 g/ha [4, 14]: 90%
- Plant response rating, Morningglory [5, 15]: 60
- Plant response rating, Morningglory [5, 16]: 0
- pest or weed control at 1000 g/ha [6, 13]: 30%
- pest or weed control at 1000 g/ha [6, 14]: 20%
- Plant response rating, Velvetleaf [7, 15]: 60
- Plant response rating, Velvetleaf [7, 16]: 0
- plant injury at 1000 g/ha [8, 13]: 100%
- plant injury at 1000 g/ha [8, 14]: 90%
- Bermudagrass plant response rating ([9]; 250 g ai/ha, preemergence, 0-100 scale): 100
- pest or weed control at 31 g/ha ([9]; Cynodon dactylon, post-emergence, Postemergence, scale 0 to 100, 0 no effect, read-out: Plant response rating, Bermudagrass): 100%
- pest or weed control at 62 g/ha [9, 17]: 100%
- pest or weed control at 125 g/ha [9, 17]: 100%
- pest or weed control at 250 g/ha ([9]; Cynodon dactylon, post-emergence, Postemergence, 250 g ai/ha, scale 0 to 100, read-out: Plant response rating, Bermudagrass): 100%
- pest or weed control at 31 g/ha ([9]; Cynodon dactylon, pre-emergence, Preemergence, 0 to 100 scale, 0 no effect, read-out: Plant response rating, Bermudagrass): 100%
- pest or weed control at 62 g/ha [9, 18]: 100%
- pest or weed control at 125 g/ha [9, 18]: 100%
- pest or weed control at 31 g/ha [10, 19]: 0%
- pest or weed control at 62 g/ha ([10]; post-emergence, Postemergence): 0%
- pest or weed control at 125 g/ha ([10]; post-emergence, Postemergence): 0%
- pest or weed control at 250 g/ha ([10]; post-emergence, Postemergence): 0%
- pest or weed control at 31 g/ha [10, 20]: 0%
- pest or weed control at 62 g/ha ([10]; pre-emergence, Preemergence): 0%
- pest or weed control at 125 g/ha ([10]; pre-emergence, Preemergence): 0%
- pest or weed control at 250 g/ha ([10]; pre-emergence, Preemergence): 0%
- pest or weed control at 31 g/ha [11, 19]: 0%
- pest or weed control at 62 g/ha [11, 21]: 0%
- pest or weed control at 125 g/ha ([11]; post-emergence, Postemergence, 125 g ai/ha, scale 0 to 100): 0%
- pest or weed control at 250 g/ha [11, 21]: 0%
- pest or weed control at 31 g/ha [11, 20]: 0%
- pest or weed control at 62 g/ha [11, 22]: 0%
- pest or weed control at 250 g/ha [11, 22]: 0%
- Plant response rating, Chickweed ([12]; 31 g ai/ha, scale 0 to 100, 0 no effect, 100 complete control): 0
- Plant response rating, Chickweed ([12]; 62 g ai/ha, scale 0 to 100): 0
- Plant response rating, Chickweed ([12]; 125 g ai/ha, scale 0 to 100): 0
- Plant response rating, Chickweed ([12]; 250 g ai/ha, scale 0 to 100): 5
